Test results reported in article PMC5461267, “Membrane Guanylate Cyclase catalytic Subdomain: Structure and Linkage with Calcium Sensors and Bicarbonate” (Frontiers in Molecular Neuroscience, 2017).
Substitutions are numbered along the chain they refer to. Numbers in names are those of the source. Each block holds one molecule with its values, some of them ahead of it.

Key:
[1] = molecular target: T1, CCD/CTE (aa 817-1054) of ROS-GC1 (Bos taurus, UniProt P55203, A1013R); experiment: cyclic GMP radioimmunoassay, purified protein; type: biochemical; conditions: 1 mM GTP, 4 mM MgCl2, pH 7.5, 37 °C
T1 construct: gene GUCY2D; dimer
T1 sequence (P55203 873-1110 A1013R): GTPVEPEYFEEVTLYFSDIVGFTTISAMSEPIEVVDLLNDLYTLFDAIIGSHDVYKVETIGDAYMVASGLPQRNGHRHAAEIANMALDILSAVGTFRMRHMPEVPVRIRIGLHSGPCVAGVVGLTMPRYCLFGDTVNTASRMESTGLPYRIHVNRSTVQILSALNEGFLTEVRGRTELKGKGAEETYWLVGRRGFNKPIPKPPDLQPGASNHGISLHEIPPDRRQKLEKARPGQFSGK

[2] = molecular target: T2, CCD (aa fragment 817-965) of ROS-GC1 (Bos taurus, UniProt P55203, A1013R); experiment: cyclic GMP radioimmunoassay, purified protein; type: biochemical; conditions: 1 mM GTP, 4 mM MgCl2, pH 7.5, 37 °C
T2 construct: gene GUCY2D; homodimer
T2 sequence (P55203 873-1021 A1013R): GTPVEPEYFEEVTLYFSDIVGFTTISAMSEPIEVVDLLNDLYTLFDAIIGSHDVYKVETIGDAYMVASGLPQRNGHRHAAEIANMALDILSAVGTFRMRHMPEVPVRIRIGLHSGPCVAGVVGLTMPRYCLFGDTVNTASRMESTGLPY

[3] = molecular target: T3, ROS-GC1 (rod outer segment guanylate cyclase type 1), full-length recombinant (Bos taurus, UniProt P55203); experiment: cyclic GMP radioimmunoassay, COS cell membranes; Hill fit; type: biochemical; conditions: constant Mg2+, GTP 0-3 mM, pH 7.5, 37 °C; half-maximal concentration from Hill equation
T3 construct: gene GUCY2D; full-length wild-type cDNA expressed in COS-7 cells; membrane fraction assayed; homodimer
T3 sequence (P55203 57-1110): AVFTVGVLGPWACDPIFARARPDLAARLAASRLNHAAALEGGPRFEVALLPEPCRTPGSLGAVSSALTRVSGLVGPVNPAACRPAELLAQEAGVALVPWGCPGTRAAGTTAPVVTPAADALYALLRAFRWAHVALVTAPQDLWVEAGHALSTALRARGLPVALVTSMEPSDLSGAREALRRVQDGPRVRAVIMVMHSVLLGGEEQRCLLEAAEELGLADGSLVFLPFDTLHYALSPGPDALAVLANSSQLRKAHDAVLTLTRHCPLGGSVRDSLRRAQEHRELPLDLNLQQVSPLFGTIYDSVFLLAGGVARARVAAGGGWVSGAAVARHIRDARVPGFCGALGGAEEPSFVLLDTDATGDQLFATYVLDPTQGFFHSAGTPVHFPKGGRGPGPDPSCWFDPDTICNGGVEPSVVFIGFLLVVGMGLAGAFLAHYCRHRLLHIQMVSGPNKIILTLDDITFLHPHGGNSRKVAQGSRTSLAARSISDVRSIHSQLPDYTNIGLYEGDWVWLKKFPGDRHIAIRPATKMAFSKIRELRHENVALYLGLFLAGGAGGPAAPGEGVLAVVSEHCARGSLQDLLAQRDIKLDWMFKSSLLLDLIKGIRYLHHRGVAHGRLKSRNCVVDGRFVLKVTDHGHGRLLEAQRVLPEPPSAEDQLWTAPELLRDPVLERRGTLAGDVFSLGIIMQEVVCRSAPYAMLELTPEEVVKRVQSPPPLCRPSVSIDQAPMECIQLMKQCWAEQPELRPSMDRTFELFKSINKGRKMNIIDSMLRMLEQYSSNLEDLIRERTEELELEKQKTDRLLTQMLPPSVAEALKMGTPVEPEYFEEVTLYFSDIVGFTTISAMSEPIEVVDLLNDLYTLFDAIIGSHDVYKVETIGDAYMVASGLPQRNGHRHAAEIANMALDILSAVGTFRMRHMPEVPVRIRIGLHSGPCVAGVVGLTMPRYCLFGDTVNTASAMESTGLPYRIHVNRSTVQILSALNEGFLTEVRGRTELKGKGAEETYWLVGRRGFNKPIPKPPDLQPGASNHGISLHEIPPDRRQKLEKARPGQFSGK

[4] = substrate: Nc1nc2c(ncn2[C@@H]2O[C@H](COP(=O)(O)OP(=O)(O)OP(=O)(O)O)[C@@H](O)[C@H]2O)c(=O)[nH]1; experiment: as above; type: biochemical, Bos taurus; conditions: constant Mg2+, GTP 0-3 mM, pH 7.5, 37 °C, half-maximal concentration from Hill equation

Km [3]: 500 ± 30 µM
Molecule: Nc1nc2c(ncn2[C@@H]2O[C@H](COP(=O)(O)OP(=O)(O)OP(=O)(O)O)[C@@H](O)[C@H]2O)c(=O)[nH]1 [GTP]
cyclic GMP radioimmunoassay, purified protein [1]: constructs lacked the TMD, illustrated by the CCD–CTE and CCD | cyclic GMP radioimmunoassay, purified protein [2]: The isolated soluble CCD construct contained only a minimal basal specific catalytic activity

B1: ROS-GC1 (rod outer segment guanylate cyclase type 1), full-length recombinant (Bos taurus; A1013R/C1002A) (protein)
chain: T3 sequence (P55203 57-1110) with C946A, A957R
notes: full-length wild-type cDNA expressed in COS-7 cells; membrane fraction assayed; homodimer
Km [4]: 640 ± 20 µM

B2: ROS-GC1 (rod outer segment guanylate cyclase type 1), full-length recombinant (Bos taurus; A1013R/N1009A) (protein)
chain: T3 sequence (P55203 57-1110) with N953A, A957R
notes: as for B1
Km [4]: 490 ± 10 µM
